Data as given in patent publication US12024715B2, “Compositions and methods for improved T cells” (Temple University-Of The Commonwealth System of Higher …, priority 2017, dated 2024).

Columns and labels:
pEzh2S21 and H3K27me3 = assay: Immunoblot analysis of TCR-activated Pmel-1 CD8+ T cells; format: cell-based, mouse; conditions: proliferating Pmel-1 CD8+ T cells stimulated in vitro for 7 days, with or without MK2206
[1] = test system: Id3, Id2, Eomes and Prdm1; assay: Real-time RT-PCR analysis of Ezh2-targeted genes in cultured Pmel-1 cells; format: cell-based, mouse; conditions: WT Pmel-1 cells, anti-CD3/CD28 Ab+IL-2, inhibitor treatment for 7 days
Protocol: Splenic and LN CD44loCD8+ TN cells were prepared as previously described (Zhang et al., 2002, J Immunol, 169:7111-7118; Zhang et al., 2005, Nat Med, 11:1299-1305). The purity was usually 90-95%. CD8+ T cell cultures were set up as previously described (He et al., 2013, Blood, 122:4119-4128; Tong et al., 2014, J Immunol, 192:5012-5022). In brief, CD44loCD8+ naive T cells (were cultured in the presence of anti-CD3 (2 μg/ml) and anti-CD28 (2.0 μg/ml) Abs together with recombinant human IL-2 (10 ng/ml; R&D Systems). In vivo sorted T cells and cultured T cells were restimulated with anti-CD3 Ab (1 μg/ml; BioLegend) or human gp100 (10^−6 M) for 5 hours before intracellular staining. Bone marrow-derived dendritic cells (DCs) were generated as previously described (Zhang et al., 2005, Nat Med, 11:1299-1305). For TAT-Cre experiments, 10^6 purified CD8^+ T cells or splenocytes were incubated in 100 μL serum-free RPMI containing 90 to 100 μg/mL TAT-Cre fusion protein for 16 hours at 37° C. After extensive washing, treated cells were kept in vitro culture for another 5 days.
The MigR1 retroviral vector system was described previously (Tong et al., 2014, J Immunol, 192:5012-5022; Pear et al., 1998, Blood, 92:3780-3792). Ezh2, Ezh2 mutants, and Id3 cDNA was cloned into Mig-R1 (GFP) vector. For retroviral infection, CD8+ T cells were prestimulated with anti-CD3/CD28 Ab for 24 hours, and then the retrovirus supernatant was added in the presence of 8 μg/ml polybrene (Sigma). Cells were spinoculated at 3000 rpm, 32° C. for 3 hours. The same retroviral infection procedure was repeated 24 hours later (Tong et al., 2014, J Immunol, 192:5012-5022).
RNA was isolated with an RNeasy Mini kit (Qiagen) and cDNA was generated by reverse transcription (Applied Biosystems). Real-time RT-PCR was performed with a SYBR green PCR mix (ABI Biosystems) in the Realplex Eppendorf Real-time PCR instrument (Eppendorf AG). Gene expression levels were calculated relative to the 18s gene. Data were collected and quantitatively analyzed on a Realplex sequence detection system (Eppendorf AG), and Applied Biosystems StepOne Plus Real-time PCR systems (Applied Biosystems).

[2] = test system: promoter regions of Id3, Id2, Eomes and Prdm1 loci; assay: ChIP analysis of Ezh2 and H3K27me3 deposition in cultured Pmel-1 cells; format: cell-based, mouse; conditions: Akt inhibition
Protocol: A Millipore ChIP kit and Diagenode ChIP kit was used for ChIP assay as described by the manufacturer. DNA-protein complexes were crosslinked with formaldehyde at a final concentration of 1%. Sonicated extracts were precleared and incubated with Abs specific to Ezh2, H3K27me3, or nonspecific anti-IgG. The immunoprecipitated DNA was quantified by real-time quantitative PCR.

B16 melanoma = assay: Adoptive transfer of Pmel-1 cells into B6 mice with pre-established B16 melanoma, tumor size over time; format: in vivo, mouse; conditions: Pmel-1 cells treated during ex vivo culture, transferred into B16 melanoma-bearing B6 mice
Protocol: Pmel-1 T cells (1×10^4 to 1×10^6) were transferred into sublethally irradiated B6 mice (5.0 Gy). IL-2 (100,000 IU) was administered intraperitoneally twice a day, and BM-derived DCs which have been pulsed with gp100 (10 μg) were transferred via tail vein, for constitutively three days after adoptive transfer. C57BL/6 mice were injected subcutaneously with 5×10^5 B16 melanoma cells. In some experiments, Ezh2^fl/fl mice were intravenously received VVA-gp100 or VVA-OVA.
The Abs used for flow cytometric analyses were purchased from eBioscience, BioLegend, or BD Biosciences. Flow cytometric analyses were performed with FACS LSRII (BD Biosciences) as described (Zhang et al., 2005, Nat Med, 11:1299-1305; Zhang et al., 2002, J Immunol, 169:7111-7118). B16 mouse melanoma cell line was from American Type Culture Collection.

## NC1(c2ccc(-c3nc4ccn5c(=O)[nH]nc5c4cc3-c3ccccc3)cc2)CCC1 [MK2206]
pEzh2S21 and H3K27me3
  H3K27me3 (immunoblot): increase
  pEzh2S21 (immunoblot): marked decrease
[1]
  Eomes expression: reducing
  Id2 expression: reducing
  Id3 expression: upregulated
  Prdm1 expression: reducing
[2]
  amount of Ezh2 at the promoter regions of Id3, Id2, Eomes and Prdm1 loci: significantly increased
  amount of H3K27me3 at the promoter regions of Id3, Id2, Eomes and Prdm1 loci: significantly increased
B16 melanoma
  anti-tumor activity (tumor growth): greater anti-tumor activity than untreated Pmel-1 cells, but was less potent than Ezh2S21A-transduced Pmel-1 cells

## Oc1cccc(-c2nc(N3CCOCC3)c3oc4ncccc4c3n2)c1 [PI103]
[1]
  Eomes expression: reducing
  Id2 expression: reducing
  Id3 expression: upregulated
  Prdm1 expression: reducing
